Read-outs that look alike come from different tables or passages of the source.
Experiments:
[1] = system: hPDE2A; conditions: cited from earlier work
[2] = target: human recombinant PDE2A (Homo sapiens, UniProt O00408); assay: enzyme assay, inhibitory potency for human recombinant PDE2A; type: biochemical; conditions: for Selectivity Ratio PDE10A/PDE2A: IC50 hPDE10A / IC50 hPDE2A; for IC50: human recombinant PDE2A, enzyme assay (BioCrea), read-out: IC50 hPDE2A
From the text: (§1) The IC50 values obtained by this assay represent relative measures of the respective target affinity of the compounds.

[3] = target: human recombinant PDE10A (Homo sapiens, UniProt Q9Y233); assay: enzyme assay, inhibitory potency for human recombinant PDE10A; type: biochemical; conditions: enzyme assay (BioCrea), read-out: IC50 hPDE10A
Chain of human recombinant PDE10A (Q9Y233 whole entry): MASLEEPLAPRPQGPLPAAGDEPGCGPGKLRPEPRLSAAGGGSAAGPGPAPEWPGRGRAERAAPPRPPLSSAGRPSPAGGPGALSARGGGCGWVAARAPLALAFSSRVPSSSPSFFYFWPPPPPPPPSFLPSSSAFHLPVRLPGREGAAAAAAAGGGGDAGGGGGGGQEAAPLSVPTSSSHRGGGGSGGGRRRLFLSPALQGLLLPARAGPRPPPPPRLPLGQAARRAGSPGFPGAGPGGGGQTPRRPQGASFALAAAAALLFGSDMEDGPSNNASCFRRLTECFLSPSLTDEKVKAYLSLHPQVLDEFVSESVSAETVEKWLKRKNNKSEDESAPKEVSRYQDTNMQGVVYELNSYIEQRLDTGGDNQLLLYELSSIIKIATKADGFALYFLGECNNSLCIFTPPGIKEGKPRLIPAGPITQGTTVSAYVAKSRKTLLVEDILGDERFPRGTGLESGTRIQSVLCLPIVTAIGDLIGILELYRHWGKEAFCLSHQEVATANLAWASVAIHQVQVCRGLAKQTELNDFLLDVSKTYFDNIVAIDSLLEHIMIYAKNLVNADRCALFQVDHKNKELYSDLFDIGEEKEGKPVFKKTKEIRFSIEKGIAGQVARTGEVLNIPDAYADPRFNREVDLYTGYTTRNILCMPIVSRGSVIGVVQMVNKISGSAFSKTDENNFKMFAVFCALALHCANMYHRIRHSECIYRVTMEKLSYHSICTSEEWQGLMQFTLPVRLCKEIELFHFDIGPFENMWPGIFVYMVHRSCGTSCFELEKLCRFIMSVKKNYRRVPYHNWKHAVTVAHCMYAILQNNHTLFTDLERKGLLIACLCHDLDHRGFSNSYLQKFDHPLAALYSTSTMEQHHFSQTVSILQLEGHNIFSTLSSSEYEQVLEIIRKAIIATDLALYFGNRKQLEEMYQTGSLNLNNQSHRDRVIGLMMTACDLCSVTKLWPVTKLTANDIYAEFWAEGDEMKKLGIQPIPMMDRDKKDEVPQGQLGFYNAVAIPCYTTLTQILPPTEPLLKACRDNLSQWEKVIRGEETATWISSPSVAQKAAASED
From the text: as §1

[4] = design: method as in PMID 24189054; conditions: rats, cited from earlier work
[5] = system: hPDE10A; design: method as in PMID 24189054, PMID 23651455; conditions: cited from earlier work
[6] = design: method as in PMID 24189054, PMID 23651455; conditions: monkeys, striatum; cited from earlier work

Chain of human recombinant PDE2A (O00408 whole entry): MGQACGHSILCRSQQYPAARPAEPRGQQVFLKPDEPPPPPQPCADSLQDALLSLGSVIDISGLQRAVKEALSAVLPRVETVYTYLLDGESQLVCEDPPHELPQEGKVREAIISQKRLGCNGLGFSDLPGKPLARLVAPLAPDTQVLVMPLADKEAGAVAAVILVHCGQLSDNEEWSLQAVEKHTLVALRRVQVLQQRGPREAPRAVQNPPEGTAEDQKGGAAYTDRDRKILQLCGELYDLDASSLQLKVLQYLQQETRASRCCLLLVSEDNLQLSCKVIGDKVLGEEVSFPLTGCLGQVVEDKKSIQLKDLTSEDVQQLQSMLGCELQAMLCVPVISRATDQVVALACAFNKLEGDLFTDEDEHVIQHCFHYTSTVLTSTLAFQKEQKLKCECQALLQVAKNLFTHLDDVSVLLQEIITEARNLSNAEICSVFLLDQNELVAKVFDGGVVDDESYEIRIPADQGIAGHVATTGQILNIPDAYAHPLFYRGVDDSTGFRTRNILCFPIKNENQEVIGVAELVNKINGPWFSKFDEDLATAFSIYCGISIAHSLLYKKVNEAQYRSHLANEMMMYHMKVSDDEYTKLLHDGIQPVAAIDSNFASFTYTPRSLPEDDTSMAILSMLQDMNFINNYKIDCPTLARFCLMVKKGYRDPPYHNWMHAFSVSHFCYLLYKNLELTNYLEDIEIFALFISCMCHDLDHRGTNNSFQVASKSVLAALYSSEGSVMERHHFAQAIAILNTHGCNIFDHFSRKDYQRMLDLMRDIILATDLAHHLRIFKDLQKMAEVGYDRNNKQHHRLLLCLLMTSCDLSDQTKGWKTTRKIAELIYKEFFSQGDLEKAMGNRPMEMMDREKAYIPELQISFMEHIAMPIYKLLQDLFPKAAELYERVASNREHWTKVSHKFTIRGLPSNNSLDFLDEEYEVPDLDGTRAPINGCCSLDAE

For `COc1ccc(Cc2nn3c(C(CCCc4ccccc4)C(C)O)nc(C)c3c(=O)[nH]2)cc1OC` (centres unmarked) [BAY 60-7550], the IC50 ([1]; Figure 1) is given as roughly 5 nM.

In the case of `CCCCCCC(C(C)O)n1cnc2c(N)ncnc21` (stereo not drawn) [EHNA, erythro-9-(2-hydroxy-3-nonyl)-adenine], the IC50 ([1]; Figure 1) is given as roughly 1000 nM.

With `COc1ccc2nnc3c(C)nc(-c4cc(OCCF)ccc4F)n3c2n1` [TA2, 9-(2-Fluoro-5-(2-fluoroethoxy)phenyl)-2-methoxy-7-methylimidazo[5,1-c]pyrido[2,3-e] [1,2,4]triazine] the “Selectivity Ratio PDE10A/PDE2A” value [2] was 7.4, the IC50 [2] was 10.4 nM and the IC50 [3] was 77 nM.

With `COc1ccc2nnc3c(C)nc(-c4cc(OCCCF)ccc4F)n3c2n1` [TA3] the “Selectivity Ratio PDE10A/PDE2A” value [2] was 27.9, the IC50 [2] was 11.4 nM and the IC50 [3] was 318 nM.

With `COc1ccc2nnc3c(C)nc(-c4cc(OCCCCF)ccc4F)n3c2n1` [TA4] the “Selectivity Ratio PDE10A/PDE2A” value [2] was 125.1, the IC50 [2] was 7.3 nM and the IC50 [3] was 913 nM.

In the case of `Cc1nc2ccc(CN3CCOCC3)cc2n2c(-c3c([18F])cccc3Cl)nnc12` [[^18F]B-23], the “radiometabolites detected in the brain” value ([4]; at 2 min p.i.) is given as 4 % of total activity, the “radiometabolites detected in the brain” value ([4]; at 10 min p.i.) is given as 10 % of total activity and the “regional accumulation in microPET imaging” value [4] is given as “highest accumulation of [^18F]B-23 has been observed in the striatum”.

In the case of `Cc1nc(-c2cnn(C)c2-c2ccc(C(F)(F)F)cc2)c2c(N3CC([18F])C3)ncnn12` [[^18F]PF-05270430], the IC50 ([1]; Pfizer PET ligand) is given as 0.5 nM, the IC50 [5] is given as 3000 nM and the “uptake in PET studies” value [6] is given as “rapid and high uptake”.
